This is an account of results in patent US10894777B2, “TG2 inhibitor piperazine compounds and uses thereof” (UNIVERSITY OF OTTAWA, priority 2016, dated 2021).

For one test, the target named is T1, R580A-TG2 (Homo sapiens, UniProt P21980, R580A).
T1 construct: expressed in transfected cells
T1 sequence (P21980 1-687 R580A): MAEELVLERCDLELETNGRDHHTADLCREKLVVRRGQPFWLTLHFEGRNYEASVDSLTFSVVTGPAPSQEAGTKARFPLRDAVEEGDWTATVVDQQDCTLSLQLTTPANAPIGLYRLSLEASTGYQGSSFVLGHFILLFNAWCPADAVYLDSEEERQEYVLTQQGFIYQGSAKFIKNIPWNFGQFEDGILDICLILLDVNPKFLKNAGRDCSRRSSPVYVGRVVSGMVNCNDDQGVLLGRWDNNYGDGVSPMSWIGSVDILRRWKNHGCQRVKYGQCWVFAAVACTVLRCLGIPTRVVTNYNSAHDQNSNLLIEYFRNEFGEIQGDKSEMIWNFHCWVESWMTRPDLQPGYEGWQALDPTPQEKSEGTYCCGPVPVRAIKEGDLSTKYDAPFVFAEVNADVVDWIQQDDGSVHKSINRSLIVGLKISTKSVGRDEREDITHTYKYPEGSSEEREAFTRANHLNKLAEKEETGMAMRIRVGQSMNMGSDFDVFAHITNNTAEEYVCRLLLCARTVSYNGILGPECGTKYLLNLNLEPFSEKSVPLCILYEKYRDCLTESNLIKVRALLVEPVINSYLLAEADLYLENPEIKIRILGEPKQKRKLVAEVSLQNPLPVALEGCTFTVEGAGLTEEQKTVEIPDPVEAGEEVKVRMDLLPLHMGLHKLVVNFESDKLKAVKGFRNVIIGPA
Put plainly: In situ transamidating assay, SH-SY5Y cells stably overexpressing R580A-TG2. The test is classed as cell-based. The following applies: 10 μM, 16-20 h, no calcium stimulation. Here is the method:
These inhibitors were then tested in cell culture models for their efficiency in inhibiting in situ transamidating activity. […] For these studies we used SH-SY5Y neuroblastoma cells stably overexpressing R580A-TG2.
In situ transglutaminase assay. In situ transamidating activity measurement was conducted as described previously (Gundemir, S. and Johnson, G. V., PLoS ONE 4(7):e6123, 2009) with slight modifications. Briefly, 24 h after transfection of HEK 293A cells, normal growth media was changed to fresh growth media with 5% FBS containing given amount of ionomycin (0-1.5 μM) and 0.1 mM 5-(biotinamido)pentylamine (BAP) (Pierce). 3 h later, cells were collected in media, pelleted, washed once with PBS and resuspended in homogenization buffer (50 mM Tris-Cl, pH: 7.5, 150 mM NaCl, 1 mM EDTA), sonicated on ice. In a high protein binding 96-well plate (Falcon), 10 μg of protein was loaded in a total of 50 μL homogenization buffer and the plate was incubated at 4° C. overnight. The next day, 200 μL of blocking buffer (5% BSA, 0.01% Tween 20 in borate saline [100 mM boric acid, 20 mM Na-borate and 0.76 mM NaCl]) was added to each sample and the plate was incubated at 37° C. for 1 h. Each well was then rinsed 3 times with rinsing buffer (1% BSA, 0.01% Tween 20 in borate saline) and incubated with 1 μg/μL Horseradish peroxidase conjugated neutravidin (Pierce) in a total of 100 μL rinsing buffer at room temperature for 1 h. The samples were washed 4 times with rinsing buffer, and peroxidase reaction was conducted in the dark in 200 μL of OPD buffer (50 mL of 0.1 M Na2HPO4, 50 mM citric acid, 1 tablet o-phenylenediamine (Sigma Aldrich), 0.0006% H2O2). After 20 minutes, the reaction was stopped by addition of 50 μL of 1 M sulfuric acid and read at 493 nm wavelength.

Another test has as its system TS543 neurospheres. The experiment in a line: Neurosphere growth, TS543 (mesenchymal). The test is classed as cell-based, human. The following applies: 25 μM, 2 weeks. From the text:
Neurosphere cultures. TS543, TS565 and TS676, which represent the mesenchymal, proneural and classical glioblastoma subtypes respectively, based on transcriptomic and genomic analysis, were obtained from C. Brennan through the Monoclonal Antibody Core Facility at Memorial Sloan Kettering Cancer Center (Brennan, C. et al., PLoS One 4(11):e7752, 2009; Pyonteck, S. M. et al., Nature Med. 19(10):1264-72, 2013; Rohle, D. et al., Science 340(6132):626-30, 2013) and maintained in NeuroCult™ NS-A Proliferation Kit (Human) (Stem Cell Technologies) according to manufacturer's instructions. (NeuroCult Medium was supplemented with 20 ng/mL FGF, 50 ng/mL EGF and 0.0002% Heparin). To prevent neurosphere attachment to the bottom of the cell culture plates, Poly 2-hydroxyethyl methacrylate (PHM) was used. 6-well plates were coated with 1 mL/well of 1% PHM in ethanol (w/v). The plates were air dried in a sterile environment overnight and washed once with PBS and they were kept in the fridge in a sterile environment until use. For passaging, neurospheres were triturated according to instructions and 5,000 cells were seeded in each well in 2 mL medium. For treatments with TG2 inhibitors, cells were inoculated in medium containing 25 μM TG2 inhibitor or DMSO control. 200 μL of medium containing the 25 μM TG2 inhibitor or DMSO was added every other day. At the end of 2 weeks, 20-50 random microscopic images were captured for each group. The average volume of each sphere image was determined using Image J by a person blinded for neurosphere lines and treatments and volumes were calculated from the area data and used for comparison.

Consider `C=CC(=O)NCCCC[C@H](NC(=O)OCc1ccccc1)C(=O)NCCOCCOCCNS(=O)(=O)c1cccc2c(N(C)C)cccc12` [NC9], for which the “resting (basal) transamidating activity of R580A-TG2” value (“resting” for short) at R580A-TG2 is reported as “inhibit resting transamidating activity of R580A-TG2”. The “sphere growth, TS543” value with TS543 neurospheres is given as “suppressed sphere growth”.
As for `C=CC(=O)NCCCC[C@H](NC(=O)OCc1ccccc1)C(=O)N1CCN(S(=O)(=O)c2cccc3c(N(C)C)cccc23)CC1` [VA4, (S)-benzyl(6-acrylamido-1-(4-((5-(dimethylamino)naphthalen-1-yl)sulfonyl)piperazin-1-yl)-1-oxohexan-2-yl)carbamate], the “resting” value at R580A-TG2 is on record as “inhibit resting transamidating activity of R580A-TG2”. Further, the “sphere growth, TS543” value in the test on TS543 neurospheres is on record as “suppressed sphere growth”.
On to `C=CC(=O)NCCCC[C@H](NC(=O)OCc1ccccc1)C(=O)N1CCN(C(=O)c2cc3ccc(O)cc3oc2=O)CC1` [VA5, (S)-Benzyl(6-acrylamido-1-(4-(7-hydroxy-2-oxo-2H-chromene-3-carbonyl)piperazin-1-yl)-1-oxohexan-2-yl)carbamate], for which, on R580A-TG2, the “resting” value is listed as “inhibit resting transamidating activity of R580A-TG2”. For the same compound, in the test on TS543 neurospheres, the “sphere growth, TS543” value is “promoted growth”.
